This is an account of results in patent publication US5773029A, “High solubility multicomponent inclusion complexes consisting of an acidic drug, a cyclodextrin and a base” (Chiesi Farmaceutici S.p.A., priority 1994, dated 1998).

One data set can be described thus: physchem. The source says: Equilibrium solubility, at room temperature,
at different pH values, of Glibenclamide (G), its
sodium salt (G--Na), and a physical mixture thereof with
βCD (G/βCD) in a 1:1, 1:2, 1:3.
Equilibrium solubility (eq.) and instant solubility
at various times, at room temperature, at different pH values, […]

Data set [1] is described as follows: Dissolution: glibenclamide concentration versus time at room temperature in buffer (Table 3). It counts as physicochemical.
The conditions of data set [2]: cited from earlier work.

Values after ≈ are worked out from the molar mass of the structure shown. Where only a bound is given, the exact number is not on record here.

A word on the thermodynamic solubility: it is the concentration in solution at equilibrium with solid. Take `NS(=O)(=O)c1cc2c(cc1Cl)N=CNS2(=O)=O` [Chlorothiazide]: in the data set “physchem”, the thermodynamic solubility lay within 400 to 700 µg/mL (≈ 1350 to 2370 µM).

As a reminder, the pKa is the pH at which an ionisable group is half protonated. `COc1ccc(Cl)cc1C(=O)NCCc1ccc(S(=O)(=O)NC(=O)NC2CCCCC2)cc1` [G, Glibenclamide]: the solubility (thermodynamic) in “physchem” (pH 4) amounted to 4 µg/mL (≈ 8.1 µM); in the data set “physchem” (pH 7.39), 18.8 µg/mL (≈ 38.1 µM); in the data set “physchem” (pH 7.5) it was 20 µg/mL (≈ 40.5 µM); in “physchem” (pH 8.89), 299 µg/mL (≈ 605 µM); in “physchem” (pH 9), 600 µg/mL (≈ 1210 µM); in “physchem” (pH 9.53) it was 768 µg/mL (≈ 1550 µM). Moreover, the “Glibenclamide concentration by dissolution” value in data set [1] (pH 1.4, 05 min) is under 0.01 mg/mL; in data set [1] (pH 1.4, 15 min) it was under 0.01 mg/mL; in data set [1] (pH 1.4, 30 min), under 0.01 mg/mL; in data set [1] (pH 1.4, 40 min) it was under 0.01 mg/mL; in data set [1] (pH 1.4, 50 min) it was under 0.01 mg/mL; in data set [1] (pH 5.0, 05 min), under 0.01 mg/mL. Moreover, the “Glibenclamide concentration by dissolution” value was under 0.01 mg/mL in data set [1] (pH 5.0, 10 min); under 0.01 mg/mL in data set [1] (pH 5.0, 20 min); under 0.01 mg/mL in data set [1] (pH 5.0, 40 min); under 0.01 mg/mL in data set [1] (pH 5.0, 50 min). In addition, in data set [2], the pKa is reported as 6.8.

Turning to `COc1ccc(Cl)cc1C(=O)NCCc1ccc(S(=O)(=O)NC(=O)NC2CCCCC2)cc1` [G--Na], the thermodynamic solubility in the data set “physchem” (pH 9.3) came out at 7000 µg/mL (≈ 14200 µM).

As for `CN1C(C(=O)Nc2ccccn2)=C(O)c2ccccc2S1(=O)=O` [P, Piroxicam], the solubility (thermodynamic) in the data set “physchem” (pH 1.2) is 108 µg/mL (≈ 326 µM); in “physchem” (pH 6), 76 µg/mL (≈ 229 µM); in the data set “physchem” (pH 7), 570 µg/mL (≈ 1720 µM); in “physchem” (pH 7.5) it was 1030 µg/mL (≈ 3110 µM).
